Data set [1] relates to hematopoietic stem and progenitor cells (HSPC), CFU-GM. Put plainly: CFU-GM mobilization into peripheral blood, BALB/c mice.
For data set [2] the test system is unchanged. Put plainly: CFU-GM mobilization into peripheral blood, FancC −/− mice. In kind it is in vivo.
Data set [3] relates to collagen-induced arthritis. To be noted: mice; cited from earlier work.
Another data set relates to pre-B-ALL cells. To be noted: in vitro, cited from earlier work.
Data set [4] concerns hematopoietic stem and progenitor cells (HSPC), CFU-GM. The data set can be described thus: CFU-GM mobilization into peripheral blood, +/+ C57B1 (wild type) mice. To be noted: +/+ C57B1 controls; G-CSF alone regimen. In kind it is in vivo.

“GROβ: recombinant human GROβ, chemokine, CXCR2 agonist” came in with a CFU-GM/mL blood mobilized in data set [1] (blood harvested 15 min after GROβ (2.5 mg/kg SC) or GROβ+AMD, alone or on day 5 after G-CSF regimen) of 2562±396 CFU-GM/mL blood. In data set [2] (FancC −/− vs +/+ C57B1), the “CFU-GM mobilization in FancC −/− mice relative to +/+ controls” value is on record as “lower in FancC −/− mice”.

Take `c1cc(CN2CCCNCCNCCCNCC2)ccc1CN1CCCNCCNCCCNCC1` [AMD3100, 1,1′-[1,4-phenylene-bis(methylene)]-bis-1,4,8,11-tetraazacyclotetradecane]: the CFU-GM/mL blood mobilized in data set [1] (blood harvested 60 min after AMD (5 mg/kg SC), alone or on day 5 after G-CSF regimen) worked out at 991±121 CFU-GM/mL blood. The “effect in collagen-induced arthritis models” value in data set [3] is “protective effects”. Besides, in the data set with pre-B-ALL cells (pre-B-ALL cells), the “effect on cytotoxic and antiproliferative effects of vincristine and dexamethasone” value was “enhanced”. For the same molecule, the “SDF-1 induced chemotaxis of pre-B-ALL cells into bone marrow stroma layers” value in the data set on pre-B-ALL cells is reported as “blocked”.

B1: G-CSF: recombinant human Granulocyte-Colony Stimulating Factor (protein, UniProt P09919 31-207, looked up)
Granulocyte …: TPLGPASSLPQSFLLKCLEQVRKIQGDGAALQEKLVSECATYKLCHPEELVLLGHSLGIPWAPLSSCPSQALQLAGCLSQLHSGLFLYQGLLQALEGISPELGPTLDTLQLDVADFATTIWQQMEELGMAPALQPTQGAMPAFASAFQRRAGGVLVASHLQSFLEVSYRVLRHLAQP
B1 gave a CFU-GM/mL blood mobilized in data set [1] (G-CSF alone 100 ug/kg/day, bid, SC×4 days) of 4362±996 CFU-GM/mL blood. The CFU-GM mobilized in data set [2] (FancC −/− mice, G-CSF alone regimen) is given as 858±21; in data set [4] it was 1451±80. In data set [2] (FancC −/− vs +/+ C57B1), the “mobilization lower in FancC −/− mice compared to +/+ controls” value worked out at 45%.

The record behind these values is patent publication US20100178271A1, “Combination Therapy” (GENZYME CORPORATION, priority 2006, published 2010).
